This assay deals with p38 MAP-kinase (Homo sapiens, UniProt Q16539). Put plainly: Enzymatic assay: inhibition of p38 MAP-kinase (phosphorylation of GST-tagged ATF2, chemoluminescence bead readout). It counts as biochemical. As to conditions: inhibitor 1 μM; activated p38 MAP-kinase 1 nM; 4 h preincubation; ATP 100 μM; ATF2 10 nM; read-out: % inhibitory effect at 1 μM. The essentials:
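Activated human p38 MAP-kinase (1 nM) preincubated 4 h at ambient temperature with compound at 1 μM in HEPES pH 7, MgCl2, DTT, Tween20. Then reacted 1 h with GST-ATF2 (10 nM) and ATP (100 μM). Phospho-ATF2 read by bead chemoluminescence at 520-620 nm, given as % inhibition at 1 μM versus kinase-free background.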

Here are results for 4 molecules from US8946438B2, “Benzamides, production thereof, and use thereof as medicaments” (Boehringer Ingelheim International GmbH, priority 2008, dated 2015).

p38 MAP-kinase, sequence (Q16539 whole entry): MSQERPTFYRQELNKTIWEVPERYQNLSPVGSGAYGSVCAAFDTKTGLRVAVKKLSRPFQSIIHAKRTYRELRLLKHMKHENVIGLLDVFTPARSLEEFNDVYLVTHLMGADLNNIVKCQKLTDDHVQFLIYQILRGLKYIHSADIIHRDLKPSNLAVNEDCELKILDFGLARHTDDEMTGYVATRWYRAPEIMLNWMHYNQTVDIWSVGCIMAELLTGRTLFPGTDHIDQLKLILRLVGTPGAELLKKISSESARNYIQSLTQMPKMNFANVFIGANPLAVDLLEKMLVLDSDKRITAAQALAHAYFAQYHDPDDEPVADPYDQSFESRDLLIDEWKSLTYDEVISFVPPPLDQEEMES

In the case of `COc1c(NC(=O)c2ccc(Cl)c(Oc3ccnc(NC4CCN(C)CC4)c3)c2)cc(C(C)(C)C)cc1NS(C)(=O)=O` [Example 10, N-(5-tert-butyl-3-methanesulphonylamino-2-methoxy-phenyl)-4-chloro-3-[2-(1-methyl-piperidin-4-ylamino)-pyridin-4-yloxy]-benzamide], the inhibition at 1 µM came to 99.6%. Turning to `COc1c(NC(=O)c2ccc(Cl)c(Oc3cc(NC4CCNCC4)ncn3)c2)cc(C(C)(C)C)cc1NS(C)(=O)=O` [Example 11, N-(5-tert-butyl-3-methanesulphonylamino-2-methoxy-phenyl)-4-chloro-3-[6-(piperidin-4-ylamino)-pyrimidin-4-yloxy]-benzamide], the inhibition at 1 µM amounted to 99.2%. The value for `COc1c(NC(=O)c2ccc(C)c(Oc3ccnc(CC4CCCN(C)CC4)c3)c2)cc(C(C)(C)C)cc1NS(C)(=O)=O` (stereo not shown) [Example 12, N-(5-tert-butyl-3-methanesulphonylamino-2-methoxy-phenyl)-4-methyl-3-[2-(1-methyl-azepan-4-ylmethyl)-pyridin-4-yloxy]-benzamide] was 97.5%. The value for `COc1c(CO)cc(C(C)(C)C)cc1NC(=O)c1ccc(C)c(Oc2ccnc(CN3CCN(C)CC3)n2)c1` [Example 13, N-(5-tert-butyl-3-hydroxymethyl-2-methoxy-phenyl)-4-methyl-3-[2-(4-methyl-piperazin-1-ylmethyl)-pyrimidin-4-yloxy]-benzamide] was 98.2%.
